In brackets after ≈: the same amount, converted by molar mass.
Columns and labels:
A549 [1] = test: Cytotoxicity against human A549 cells assessed as reduction in cell viability by SRB assay; format: functional, cell-based
SK-OV-3 = test: Cytotoxicity against human SKOV3 cells assessed as reduction in cell viability by SRB assay; format: functional, cell-based
MCF7 [2] = test: Cytotoxicity against human MCF7 cells assessed as reduction in cell viability by SRB assay; format: functional, cell-based
HeLa [3] = test: Cytotoxicity against human HeLa cells assessed as reduction in cell viability by SRB assay; format: functional, cell-based
DU-145 = test: Cytotoxicity against human DU145 cells assessed as reduction in cell viability by SRB assay; format: functional, cell-based
[4] = Cytotoxicity against human MCF7/DX cells assessed as reduction in cell viability by SRB assay; format: functional, cell-based
HepG2 [5] = test: Cytotoxicity against human HepG2 cells assessed as reduction in cell viability by SRB assay; format: functional, cell-based
HepG2 [6] = test: Cytotoxicity against human HepG2 cells assessed as reduction in cell viability; format: functional, cell-based
DLD-1 = test: Cytotoxicity against human DLD1 cells assessed as reduction in cell viability; format: functional, cell-based
NCI-H157 = test: Cytotoxicity against human NCI-H157 cells assessed as reduction in cell viability after 48 hrs by SRB assay; format: functional, cell-based; details: NCI-H157, 48 h
BHK-21 = test: Cytotoxicity against BHK21 cells assessed as reduction in cell viability after 48 hrs by SRB assay; format: cell-based; details: Mesocricetus auratus, BHK-21, 48 h
[7] = target: RAC-alpha serine/threonine-protein kinase (Homo sapiens, UniProt P31749); test: Inhibition of AKT phosphorylation in human K562 cells; format: cell-based
Chain of RAC-alpha serine/threonine-protein kinase (P31749 whole entry): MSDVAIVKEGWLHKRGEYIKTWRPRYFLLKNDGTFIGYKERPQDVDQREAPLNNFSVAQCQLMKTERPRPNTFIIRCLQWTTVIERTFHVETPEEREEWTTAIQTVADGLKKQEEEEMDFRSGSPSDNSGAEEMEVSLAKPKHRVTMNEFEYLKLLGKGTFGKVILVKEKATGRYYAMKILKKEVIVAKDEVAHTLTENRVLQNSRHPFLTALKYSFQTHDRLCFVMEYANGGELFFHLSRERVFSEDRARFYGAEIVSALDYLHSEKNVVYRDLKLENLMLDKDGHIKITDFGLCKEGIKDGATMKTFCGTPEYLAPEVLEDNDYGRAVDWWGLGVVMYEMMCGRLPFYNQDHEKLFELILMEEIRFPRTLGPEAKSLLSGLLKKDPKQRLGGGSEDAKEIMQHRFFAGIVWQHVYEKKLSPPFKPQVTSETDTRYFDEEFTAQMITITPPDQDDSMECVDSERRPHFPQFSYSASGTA

HeLa [8] = test: Cytotoxicity against human HeLa cells assessed as reduction in cell viability after 68 hrs by MTT assay; format: functional, cell-based
MCF7 [9] = test: Cytotoxicity against human MCF7 cells assessed as reduction in cell viability after 68 hrs by MTT assay; format: functional, cell-based; details: MCF7, 68 h
K562 [10] = test: Cytotoxicity against human K562 cells assessed as reduction in cell viability after 68 hrs by MTT assay; format: functional, cell-based; details: K562, 68 h
A549 [11] = test: Cytotoxicity against human A549 cells assessed as reduction in cell viability after 68 hrs by MTT assay; format: functional, cell-based; details: A549, 68 h
HeLa [12] = test: Antiproliferative activity against human HeLa cells by MTT assay; format: functional, cell-based
MCF7 [13] = test: Cytotoxicity against human MCF7 cells assessed as reduction in cell viability by MTT assay; format: functional, cell-based; details: Homo sapiens, MCF7
MDA-MB-231 = test: Anticancer activity against human MDA-MB-231 cells by MTT assay; format: functional, cell-based
K562 [14] = test: Anticancer activity against human K562 cells by MTT assay; format: functional, cell-based
A549 [15] = test: Anticancer activity against human A549 cells by MTT assay; format: functional, cell-based
HeLa [16] = test: Anticancer activity against human HeLa cells by MTT assay; format: functional, cell-based

With `Cc1cc(=O)oc2cc(OCCOCCN3C(=O)/C(=N\O)c4ccccc43)ccc12` the IC50 (A549 [1]) was 10.3 to 50 µM, the IC50 (SK-OV-3) was 10.3 to 50 µM and the IC50 (MCF7 [2]) was 10.3 to 50 µM. The IC50 (HeLa [3]) was 10.3 to 50 µM, the IC50 (DU-145) was 10.3 to 50 µM and the IC50 [4] was 10.3 to 50 µM. The IC50 (HepG2 [5]) was 10.3 to 50 µM.

For `C/C(=N\Nc1ncc(C(=O)c2cc3ccccc3oc2=O)s1)c1ccccc1`, the EC50 (HepG2 [6]) was 3.7 to 9.54 µg/mL (≈ 9.5 to 24.5 µM) and the EC50 (DLD-1) was 3.7 to 9.54 µg/mL (≈ 9.5 to 24.5 µM).

With `O=c1oc2ccccc2cc1-c1nnc2n1N=C(c1ccc([N+](=O)[O-])cc1)CS2` the IC50 (NCI-H157) was 1.01 to 5.72 µM and the IC50 (BHK-21) was 1.01 to 5.72 µM.

In the case of `COc1ccc(/C(C)=N/Nc2ncc(C(=O)c3cc4ccccc4oc3=O)s2)cc1`, the EC50 (HepG2 [6]) is reported as 3.7 to 9.54 µg/mL (≈ 8.82 to 22.7 µM) and the EC50 (DLD-1) is reported as 3.7 to 9.54 µg/mL (≈ 8.82 to 22.7 µM).

With `CO/N=C1\C(=O)N(CCOCCOc2ccc3c(C)cc(=O)oc3c2)c2ccc(C)cc21` the IC50 (A549 [1]) was 10.3 to 50 µM, the IC50 (SK-OV-3) was 10.3 to 50 µM and the IC50 (MCF7 [2]) was 10.3 to 50 µM. The IC50 (HeLa [3]) was 10.3 to 50 µM, the IC50 (DU-145) was 10.3 to 50 µM and the IC50 [4] was 10.3 to 50 µM. The IC50 (HepG2 [5]) was 10.3 to 50 µM.

`Cc1cc(=O)oc2cc(OCCOCCN3C(=O)/C(=N\O)c4cc(F)ccc43)ccc12` gave an IC50 (A549 [1]) of 10.3 to 50 µM, an IC50 (SK-OV-3) of 10.3 to 50 µM and an IC50 (MCF7 [2]) of 10.3 to 50 µM. The IC50 (HeLa [3]) was 10.3 to 50 µM, the IC50 (DU-145) was 10.3 to 50 µM and the IC50 [4] was 10.3 to 50 µM. For the same molecule, the IC50 (HepG2 [5]) was 10.3 to 50 µM.

`O=c1oc2ccccc2cc1-c1nnc2n1N=C(c1ccc(-c3ccccc3)cc1)CS2` gave an IC50 (NCI-H157) of 1.01 to 5.72 µM and an IC50 (BHK-21) of 1.01 to 5.72 µM.

For `Cc1c(Cc2ccc(NC(=O)Nc3ccc(F)cc3)nc2)c(=O)oc2cc(O)c(C(C)(C)C)cc12`, the IC50 [7] was < 10 µM, the IC50 (HeLa [8]) was 1.66 to 9.27 µM and the IC50 (MCF7 [9]) was 1.66 to 9.27 µM. The IC50 (K562 [10]) was 1.66 to 9.27 µM and the IC50 (A549 [11]) was 1.66 to 9.27 µM.

`O=c1oc2ccccc2cc1-c1nnc2n1N=C(c1ccc(F)cc1)CS2` gave an IC50 (NCI-H157) of 1.01 to 5.72 µM and an IC50 (BHK-21) of 1.01 to 5.72 µM.

`COC(=O)c1sc(N/N=C(\C)c2cc3cc(Br)ccc3oc2=O)nc1C` gave an IC50 (HeLa [12]) of 0.0091 to 0.569 µM.

In the case of `CCOC(=O)c1sc(N/N=C(\C)c2cc3ccccc3oc2=O)nc1C`, the IC50 (HeLa [12]) is reported as 0.0091 to 0.569 µM.

With `Cc1c(Cc2ccc(NC(=O)Nc3ccc(Br)cc3)nc2)c(=O)oc2cc(O)c(C(C)(C)C)cc12` the IC50 [7] was < 10 µM, the IC50 (HeLa [8]) was 1.66 to 9.27 µM and the IC50 (MCF7 [9]) was 1.66 to 9.27 µM. It also gave an IC50 (K562 [10]) of 1.66 to 9.27 µM and an IC50 (A549 [11]) of 1.66 to 9.27 µM.

For `Cc1ccc(C2=Nn3c(nnc3-c3cc4ccccc4oc3=O)SC2)cc1`, the IC50 (NCI-H157) was 1.01 to 5.72 µM and the IC50 (BHK-21) was 1.01 to 5.72 µM.

`Cc1cc(=O)oc2cc(/N=N/c3ccccc3)c(O)c(/N=N/c3ccccc3)c12` gave an IC50 (MCF7 [13]) of 1.87 µg/mL (≈ 4.86 µM).

With `COc1ccc(-n2nc(C)n(-n3c(-c4cc5ccccc5oc4=O)cs/c3=N\c3ccccc3)c2=O)cc1` the IC50 (MDA-MB-231) was 0.16 to 1.12 µg/mL (≈ 0.306 to 2.14 µM), the IC50 (K562 [14]) was 0.16 to 1.12 µg/mL (≈ 0.306 to 2.14 µM) and the IC50 (A549 [15]) was 0.16 to 1.12 µg/mL (≈ 0.306 to 2.14 µM). The IC50 (HeLa [16]) was 0.16 to 1.12 µg/mL (≈ 0.306 to 2.14 µM).

In the case of `CCNc1ncc(C(=O)c2cc3ccccc3oc2=O)s1`, the IC50 (HepG2 [6]) is reported as 5.66 to 100 µg/mL (≈ 18.8 to 333 µM) and the IC50 (DLD-1) is reported as 5.66 to 100 µg/mL (≈ 18.8 to 333 µM).

In the case of `CCOC(=O)c1sc(N/N=C(\C)c2cc3cc(Cl)ccc3oc2=O)nc1C`, the IC50 (HeLa [12]) is reported as 0.0091 to 0.569 µM.

Molecule `CO/N=C1\C(=O)N(CCOCCOc2ccc3c(C)cc(=O)oc3c2)c2ccc(Cl)cc21` has an IC50 (A549 [1]) of 10.3 to 50 µM, an IC50 (SK-OV-3) of 10.3 to 50 µM and an IC50 (MCF7 [2]) of 10.3 to 50 µM. It also gave an IC50 (HeLa [3]) of 10.3 to 50 µM, an IC50 (DU-145) of 10.3 to 50 µM and an IC50 [4] of 10.3 to 50 µM. The IC50 (HepG2 [5]) was 10.3 to 50 µM.

With `Cc1ccc(NC(=O)Nc2ccc(Cc3c(C)c4cc(C(C)(C)C)c(O)cc4oc3=O)cn2)cc1` the IC50 [7] was < 10 µM, the IC50 (HeLa [8]) was 1.66 to 9.27 µM and the IC50 (MCF7 [9]) was 1.66 to 9.27 µM. It also gave an IC50 (K562 [10]) of 1.66 to 9.27 µM and an IC50 (A549 [11]) of 1.66 to 9.27 µM.

`COc1ccc(C2=Nn3c(nnc3-c3cc4ccccc4oc3=O)SC2)cc1` showed an IC50 (NCI-H157) of 1.01 to 5.72 µM and an IC50 (BHK-21) of 1.01 to 5.72 µM.

With `Cc1c(Cc2ccc(NC(=O)Nc3ccccc3Cl)nc2)c(=O)oc2cc(O)c(C(C)(C)C)cc12` the IC50 [7] was < 10 µM, the IC50 (HeLa [8]) was 1.66 to 9.27 µM and the IC50 (MCF7 [9]) was 1.66 to 9.27 µM. For the same molecule, the IC50 (K562 [10]) was 1.66 to 9.27 µM and the IC50 (A549 [11]) was 1.66 to 9.27 µM.

In the case of `O=c1oc2ccccc2cc1-c1nnc2n1N=C(c1ccc(Cl)c(Cl)c1)CS2`, the IC50 (NCI-H157) is reported as 1.73 µM and the IC50 (BHK-21) is reported as 1.39 µM.

With `Cc1c(Cc2ccc(NC(=O)Nc3cccc(Cl)c3)nc2)c(=O)oc2cc(O)c(C(C)(C)C)cc12` the IC50 [7] was < 10 µM, the IC50 (HeLa [8]) was 1.66 to 9.27 µM and the IC50 (MCF7 [9]) was 1.66 to 9.27 µM. It also gave an IC50 (K562 [10]) of 1.66 to 9.27 µM and an IC50 (A549 [11]) of 1.66 to 9.27 µM.

With `CCOC(=O)c1sc(N/N=C(\C)c2cc3cc(Br)ccc3oc2=O)nc1C` the IC50 (HeLa [12]) was 0.0091 to 0.569 µM.

In the case of `CC(=O)c1ccc(C2=Nn3c(nnc3-c3cc4ccccc4oc3=O)SC2)cc1`, the IC50 (NCI-H157) is reported as 1.01 to 5.72 µM and the IC50 (BHK-21) is reported as 1.01 to 5.72 µM.
